# Results taken from patent US20250177396A1, “POLO-LIKE KINASE 4 (PLK4) INHIBITORS, PHARMACEUTICAL COMPOSITIONS, METHODS OF PREPARATION AND USES THEREOF” (Repare Therapeutics Inc., priority 2022, published 2025).
# Molecular target: T1, PLK4 (Homo sapiens, UniProt O00444)
# T1 construct: expressed in transfected cells; host or cells: HEK293 T cells (ATCC CRL-3216)
# T1 sequence (O00444 1-970): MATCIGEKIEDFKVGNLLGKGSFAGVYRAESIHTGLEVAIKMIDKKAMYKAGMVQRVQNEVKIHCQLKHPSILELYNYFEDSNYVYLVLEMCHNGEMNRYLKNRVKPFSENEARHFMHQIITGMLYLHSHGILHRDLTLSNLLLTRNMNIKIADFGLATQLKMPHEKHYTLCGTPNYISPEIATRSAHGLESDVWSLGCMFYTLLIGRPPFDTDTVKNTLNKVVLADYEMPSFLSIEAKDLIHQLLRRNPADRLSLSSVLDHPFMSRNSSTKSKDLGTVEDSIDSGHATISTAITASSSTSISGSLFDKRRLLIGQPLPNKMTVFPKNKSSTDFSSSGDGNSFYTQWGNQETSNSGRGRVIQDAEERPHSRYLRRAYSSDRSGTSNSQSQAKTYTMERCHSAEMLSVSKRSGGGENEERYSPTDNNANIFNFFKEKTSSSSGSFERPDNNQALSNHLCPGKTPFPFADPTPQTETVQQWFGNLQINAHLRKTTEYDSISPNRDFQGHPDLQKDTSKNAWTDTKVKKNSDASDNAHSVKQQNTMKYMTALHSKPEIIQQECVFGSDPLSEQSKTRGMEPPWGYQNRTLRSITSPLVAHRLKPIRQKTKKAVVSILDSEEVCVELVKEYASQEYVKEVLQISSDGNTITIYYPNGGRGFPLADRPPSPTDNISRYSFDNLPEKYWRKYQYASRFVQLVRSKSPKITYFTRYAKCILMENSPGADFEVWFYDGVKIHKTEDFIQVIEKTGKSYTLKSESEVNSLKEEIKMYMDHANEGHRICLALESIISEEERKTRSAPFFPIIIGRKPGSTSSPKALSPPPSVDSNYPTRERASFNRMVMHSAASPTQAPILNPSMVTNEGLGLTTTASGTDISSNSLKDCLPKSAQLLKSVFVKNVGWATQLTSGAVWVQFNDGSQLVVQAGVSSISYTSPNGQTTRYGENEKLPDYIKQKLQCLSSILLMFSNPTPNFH
# Test: PLK4 NanoBRET target engagement assay
# Type: binding
# Conditions: HEK293 T cells transfected with PLK4 NanoLuc fusion vector; K-5 tracer; 2 hrs incubation
# Procedure: To determine the affinity of Compounds described herein in the PLK4 NanoBRET target engagement assay, HEK293 T cells (ATCC Product Number CRL-3216) are first transfected with the PLK4 NanoLuc fusion vector DNA and Transfection carrier DNA using the Fugene HD Transfection reagent in Opti-MEM No Phenol Red buffer. After an overnight incubation in a 37° C./5% CO2 incubator, the transfected HEK293 T cells are trypsinized, counted, and resuspended in Opti-MEM No Phenol Red buffer at a concentration of 200000 cells/mL. White 96-well plates are then plated with 85 μL of cells (17000 cells/well) to which 5 μL of the 20×K-5 tracer solution diluted in tracer dilution buffer is added. Finally, 10 μL of the 10× compounds are added and the plates and then incubated in a 37° C./5% CO2 incubator for 2 hrs. After the incubation, a 50 uL 3× solution of the substrate/inhibitor mix is added to the cells. The plate is then transferred in the Envision plate reader where the Acceptor emission (610 nm) and the Donor emission (450 nm) are measured.
# The IC50 of compounds is determined as follows: • 1. The ratio between the Acceptor emission (610 nm)/Donor emission (450 nm) is calculated. • 2. This ratio is then multiplied by 1000 to obtain the mBRET units (multiplying by 1000 is an arbitrary step that simply makes the data easier to interpret; it has no impact on the data set itself) • 3. The mBRET units are then used in Scigilian Analyze software (https://analyze.scigilian.io) to determine the IC50 value using a 4-parameter fit analysis.
row,SMILES,IC50 [nM]
1,CN(c1nc(Nc2cc(C3CC3)[nH]n2)c(C2CC2)c(-c2cnn(C)c2C(N)=O)n1)c1c(F)cc(S(C)(=O)=O)cc1F [Compound 256],4
2,COC(=O)CN(c1nc(Nc2cc(C)[nH]n2)c(OC)c(-c2cnn(C)c2)n1)c1ccc(S(C)(=O)=O)cc1F [Compound 90],370
3,Cc1cc(Nc2nc(N(C)c3ccc(S(=O)(=O)C(C)C)cc3)nc(-c3cnn(C)c3)c2C2CC2)n[nH]1 [Compound 81],73
4,"COc1c(Nc2cc(C)[nH]n2)nc(Nc2ccc(S(C)(=O)=O)cc2F)nc1-c1cnn(C)c1 [Compound 1, N^2-(2-fluoro-4-(methylsulfonyl)phenyl)-5-methoxy-N^4-(5-methyl-1H-pyrazol-3-yl)-6-(1-methyl-1H-pyrazol-4-yl)pyrimidine-2,4-diamine]",220
5,Cc1cc(Nc2nc(N(C)c3c(F)cc(S(C)(=O)=O)cc3F)nc(-c3cnn(CF)c3)c2C2CC2)n[nH]1 [Compound 127],6
6,COCCn1ncc(-c2nc(N(C)c3c(F)cc(S(C)(=O)=O)cc3F)nc(Nc3cc(C4CC4)[nH]n3)c2C2CC2)c1C [Compound 277],3
7,COCCn1cc(-c2nc(N(C)c3ccc(S(C)(=O)=O)cc3F)nc(Nc3cc(C)[nH]n3)c2C2CC2)c(C)n1 [Compound 219],18
8,Cc1cc(Nc2nc(N(C)c3c(F)cc(S(C)(=O)=O)cc3F)nc(-c3cn(CCF)c(C)n3)c2C2CC2)n[nH]1 [Compound 229],3
9,Cc1cc(Nc2nc(N(C)c3c(F)cc(S(C)(=O)=O)cc3F)nc(-c3cnn(CCS(C)(=O)=O)c3)c2C2CC2)n[nH]1 [Compound 172],6
10,Cc1cc(Nc2nc(N(C)c3c(F)cc(S(C)(=O)=O)cc3F)nc(-c3cn(C)nc3C(F)F)c2C2CC2)n[nH]1 [Compound 149],6
11,Cc1cc(Nc2nc(N(C)c3c(F)cc(S(C)(=O)=O)cc3F)nc(-c3cnc4ccc(F)cn34)c2C2CC2)n[nH]1 [Compound 310],31
12,Cc1cc(Nc2nc(N(C)c3c(F)cc(C(=O)N(C)C)cc3F)nc(-c3cn(C)cn3)c2C2CC2)n[nH]1 [Compound 355],190
13,CNC(=O)c1c(-c2nc(N(C)c3c(F)cc(S(C)(=O)=O)cc3F)nc(Nc3cc(C)[nH]n3)c2C2CC2)cnn1C [Compound 261],8
14,Cc1cc(Nc2nc(N(C)c3c(F)cc(S(C)(=O)=O)cc3F)nc(-c3cn(C4COC4)nc3C)c2C2CC2)n[nH]1 [Compound 180],4
15,Cc1cc(Nc2nc(N(C)c3c(F)cc(S(C)(=O)=O)cc3F)nc(-c3cnn(C)c3C(=O)N3CC(F)(F)C3)c2C2CC2)n[nH]1 [Compound 264],25
16,Cc1cc(Nc2nc(N(C)c3ccc(S(C)(=O)=O)cc3F)nc(-c3ccn(C)n3)c2C(C)C)n[nH]1 [Compound 60],> 5000
17,Cc1cc(Nc2nc(N(C)c3c(F)cc(S(C)(=O)=O)cc3F)nc(-c3cnn(CCO)c3)c2C2CC2)n[nH]1 [Compound 141],9
18,Cc1cc(Nc2nc(N(C)c3c(F)cc(S(C)(=O)=O)cc3F)nc(-c3cn(C)nc3C3CC3)c2C2CC2)n[nH]1 [Compound 198],4
19,Cc1cc(Nc2nc(N(C)c3cc(F)c(S(C)(=O)=O)cc3F)nc(-c3cnn([C@H]4CC[C@H](O)CC4)c3)c2C2CC2)n[nH]1 [Compound 223],9
20,COCCCS(=O)(=O)c1ccc(N(C)c2nc(Nc3cc(C)[nH]n3)c(OC)c(-c3cnn(C)c3)n2)cc1 [Compound 67],270
21,Cc1cc(Nc2nc(N(C)c3ccc(S(C)(=O)=O)cc3Cl)nc(-c3ccn(C)n3)c2C2CC2)n[nH]1 [Compound 48],50
22,Cc1cc(Nc2nc(N(C)c3c(F)cc(S(C)(=O)=O)cc3F)nc(-c3cn(C(F)F)nc3C)c2C2CC2)n[nH]1 [Compound 143],12
23,Cc1cc(Nc2nc(N(C)c3c(F)cc(S(C)(=O)=O)cc3F)nc(C3CC3)c2C2CC2)n[nH]1 [Compound 138],160

row,SMILES,IC50 [nM]
1,Cc1cc(Nc2nc(N(C)c3c(F)cc(S(C)(=O)=O)cc3F)nc(-c3cc(CC#N)n(C)n3)c2C2CC2)n[nH]1 [Compound 340],4
2,Cc1cc(Nc2nc(N(C)c3c(F)cc(S(C)(=O)=O)cc3F)nc(-c3cnn(CC(C)(C)O)c3)c2C2CC2)n[nH]1 [Compound 213],6
3,Cc1cc(Nc2nc(N(C)c3c(F)cc(S(C)(=O)=O)cc3F)nc(N3CCc4ncn(C)c4C3)c2C2CC2)n[nH]1 [Compound 282],6
4,Cc1cc(Nc2nc(N(C)c3c(F)cc(S(C)(=O)=O)cc3F)nc(-c3cn(C)c(CO)n3)c2C2CC2)n[nH]1 [Compound 167],30
5,Cc1cc(Nc2nc(N(C)c3c(F)cc(S(C)(=O)=O)cc3F)nc(-c3cnn(C4CS(=O)(=O)C4)c3)c2C2CC2)n[nH]1 [Compound 186],17
6,COc1c(Nc2cc(C)[nH]n2)nc(N(C)c2ccc3c(c2)CCS3(=O)=O)nc1-c1cnn(C)c1 [Compound 68],1000
7,COc1cc(Nc2nc(N(C)c3c(F)cc(S(C)(=O)=O)cc3F)nc(-c3cnn(C)c3)c2C2CC2)n[nH]1 [Compound 292],24
8,Cc1cc(Nc2nc(N(C)c3c(F)cc(S(C)(=O)=O)cc3F)nc(-c3cnn(C)c3C(O)C(F)(F)F)c2C2CC2)n[nH]1 (stereo not drawn) [Compound 305],16
9,Cc1cc(Nc2nc(N(C)c3c(F)cc(S(C)(=O)=O)cc3F)nc(-c3cncn3C)c2C2CC2)n[nH]1 [Compound 134],7
10,Cc1cc(Nc2nc(N(C)c3c(F)cc(S(C)(=O)=O)cc3F)nc(-c3nn(C)cc3C(N)=O)c2C2CC2)n[nH]1 [Compound 281],340
11,Cc1cc(Nc2nc(N(C)c3c(F)cc(S(=O)(=O)C4CC4)cc3F)nc(-c3cn(C)cn3)c2C2CC2)n[nH]1 [Compound 347],5
12,Cc1cc(Nc2nc(N(C)c3c(F)cc(CC(=O)N4CCOCC4)cc3F)nc(-c3cn(C)cn3)c2C2CC2)n[nH]1 [Compound 364],> 5000
13,Cc1cc(Nc2nc(N(C)c3ccc(S(C)(=O)=O)cc3F)nc(-c3cnnn3C)c2C2CC2)n[nH]1 [Compound 43],180
14,COCCn1cc(-c2nc(N(C)c3cc(F)c(S(C)(=O)=O)cc3F)nc(Nc3cc(C)[nH]n3)c2C2CC2)c(C)n1 [Compound 221],12
15,Cc1cc(Nc2nc(N(C)c3c(F)cc(S(C)(=O)=O)cc3F)nc(-c3cnn(CC(=O)N(C)C)c3)c2C2CC2)n[nH]1 [Compound 170],11
16,Cc1cc(Nc2nc(N(C)c3cc(F)c(S(C)(=O)=O)cc3F)nc(-c3cn(C)nc3C)c2C2CC2)n[nH]1 [Compound 159],7
17,COc1c(Nc2cc(C)[nH]n2)nc(N(C)c2ccc(S(C)(=O)=O)cc2F)c(C)c1-c1cnn(C)c1 [Compound 99],4800
18,Cc1cc(Nc2nc(N(C)c3c(F)cc(S(C)(=O)=O)cc3F)nc(-c3cn(C4CC(O)C4)nc3C)c2C2CC2)n[nH]1 (stereo not drawn) [Compound 365],4
19,Cc1cc(Nc2nc(N(C)c3c(F)cc(CC(=O)N(C)C)cc3F)nc(-c3cn(C)cn3)c2C2CC2)n[nH]1 [Compound 361],> 5000
20,"Cc1cc(Nc2nc(N(C)c3ccc(S(C)(=O)=O)cc3F)nc(-c3cnn(C)c3)c2OC2CC2)n[nH]1 [Compound 344, 5-cyclopropoxy-N^2-(2-fluoro-4-(methylsulfonyl)phenyl)-N^2-methyl-N^4-(5-methyl-1H-pyrazol-3-yl)-6-(1-methyl-1H-pyrazol-4-yl)pyrimidine-2,4-diamine]",73
21,Cc1cc(Nc2nc(N(C)c3c(F)cc(-c4ccc(=O)n(C)c4)cc3F)nc(-c3cn(C)cn3)c2C2CC2)n[nH]1 [Compound 348],46
22,Cc1cc(Nc2nc(N(C)c3c(F)cc(S(C)(=O)=O)cc3F)nc(-c3cnc4n3CCC4)c2C2CC2)n[nH]1 [Compound 183],13
